Results published in article PMC6753678, “Fueling Open Innovation for Malaria Transmission-Blocking Drugs: Hundreds of Molecules Targeting Early Parasite Mosquito Stages” (Frontiers in Microbiology, 2019).
pIC50: −log10 of the molar value. Where two headings read alike, the source gives them in different places.

Assays:
[1] = test system: P. berghei ookinete development; details: for % inhibition, Replicate A / % inhibition, Replicate B: primary screen at 1 μM
[2] = test system: HepG2 cells; assay: HepG2 cytotoxicity assay; details: for pIC50: read-out: HepG2 cytotoxicity assay IC50, dose response confirmation; for Pb ODA (this manuscript) HepG2 cytoxicity: HepG2 cytotoxicity listed with the Pb ODA data set (this manuscript)
How it was run: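 Cells at 2,500 per well in MEM with 10% fetal bovine serum and 1% NEAA were exposed to test compounds for 48 h at 37°C, 5% CO2. Viability was read by fluorescence, with percent inhibition calculated against 50 μM doxorubicin (positive) and DMSO (negative) controls.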

[3] = test system: 3D7-strain P. falciparum asexual parasites; assay: P. falciparum asexual growth inhibition assay (Pf GIA); format: cell-based, Plasmodium falciparum; details: dose response confirmation; read-out: Pf asexual growth inhibition assays IC50
How it was run: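 Read-out was lactate dehydrogenase activity measured by absorbance at 650 nm after freezing and thawing, against 50 μM chloroquine and DMSO controls. Before that, asexual 3D7 cultures (0.25% parasitemia, 2% hematocrit) had 72 h dose-response compound exposure at 37°C in 5% CO2/5% O2/90% N2; three independent replicates averaged.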

[4] = read-out: Pb ODA IC50, this manuscript
[5] = read-out: Pb Ookinete development assay IC50, dose response confirmation
[6] = HepG2 values of the three screens unified
[7] = read-out: Pb ODA (this manuscript) IC50, P. berghei ookinete development assay, this manuscript
[8] = unified HepG2 value across the three screens

| Structure (SMILES) | Is compound selective in assay? Pb ODA active? ([1]; 1: YES, 0: NO) | % inhibition, Replicate A [1] | % inhibition, Replicate B [1] | pIC50 [1, 4] | pIC50 [1, 5] | HepG2 cytoxicity (Pb ODA, this manuscript) [2] | Unified cytotox [2, 6] | pIC50 [2] | pIC50 [3] | Is compound selective in assay? Pb ODA active? [1] | pIC50 [1, 7] | Pb ODA (this manuscript) HepG2 cytoxicity [2] | Unified cytotox [2, 8] |
| --- | --- | --- | --- | --- | --- | --- | --- | --- | --- | --- | --- | --- | --- |
| C=CCn1ccc2c3c(N)nc(N)nc3ccc21 [TCMDC-137995] | 0 (0: NO) | 75.02% | 69.00% | 5.61 | 5.60 | 1.00 µM | 1.00 µM | 6.00 | 7.62 |  |  |  |  |
| Nc1nc(N)c2c(ccc3c2ccn3Cc2cccc3ccccc23)n1 [TCMDC-137996] | 0 (0: NO) | 55.22% | 70.48% | 5.24 | 5.24 | 0.0017 µM | 0.0017 µM | 8.77 | 6.82 |  |  |  |  |
| CC(C)Cn1ccc2c3c(N)nc(N)nc3ccc21 [TCMDC-137997] | 0 (0: NO) | 52.84% | 64.75% | 5.85 | 5.85 | 0.25 µM | 0.25 µM | 6.60 | 7.72 |  |  |  |  |
| CCCCCCc1c(C)nc2cc(OC)ccc2c1O [TCMDC-138010] |  | 110.05% | 119.15% |  | 7.09 |  |  | 4.00 | 6.79 | 1 (key: 1: YES; 0: NO) | 7.10 | 100.00 µM |  |
| CCCCCCCc1c(C)nc2cccc(OC)c2c1O [TCMDC-138014] |  | 63.12% | 36.77% |  | 5.94 |  |  | 5.26 | 5.70 | 0 (key: 1: YES; 0: NO) | 5.94 | 5.50 µM |  |
| CCCCCCCc1c(C)nc2c(OC)cccc2c1O [TCMDC-138016] |  | 91.04% | 66.93% |  | 6.28 |  |  | 4.00 | 6.71 | 1 (key: 1: YES; 0: NO) | 6.28 | 100.00 µM |  |
| CCC(CC)n1cc2c(ccc3nc(N)nc(N)c32)n1 [TCMDC-138019] |  | 5.46% | 62.28% |  | 5.09 |  |  | 8.77 | 7.22 | 0 (key: 1: YES; 0: NO) | 5.09 | 0.0017 µM |  |
| COc1ccc(Cc2c(N)nc3nc(N)nc(N)c3c2C)cc1.Cl [TCMDC-138061] |  | -0.33% | 51.34% |  | 5.29 |  |  | 7.26 | 6.85 | 0 (key: 1: YES; 0: NO) | 5.29 | 0.055 µM |  |
| COc1ccc(-c2nc3c(N)nc(N)nc3nc2-c2ccccc2Cl)cc1.COc1ccc(-c2nc3nc(N)nc(N)c3nc2-c2ccccc2Cl)cc1.Cl [TCMDC-138100] | 0 (0: NO) | 50.02% | 33.60% | 5.08 | 5.08 |  |  | 4.14 | 5.81 |  |  |  | 73.28 µM |
| CC(O)C(C)(CO)NCc1ccc2c3c(cccc13)-c1ccccc1-2.Cl (stereo not drawn) [TCMDC-138117] | 0 (0: NO) | 18.85% | 67.10% | 6.21 | 6.22 |  |  | 5.35 | 6.31 |  |  |  | 4.47 µM |
| COc1ccc2c(=O)c(I)c(C)[nH]c2c1 [TCMDC-138141] |  | 99.28% | 96.77% |  | 6.85 |  |  | 8.77 | > 9.52 | 0 (key: 1: YES; 0: NO) |  | 0.0017 µM |  |
| Cc1ccc2c(=O)c3cc(C)ccc3[nH]c2c1 [TCMDC-138194] | 1 (1: YES) | 98.56% | 107.67% | 6.66 | 6.66 |  |  | 4.19 | 6.75 |  |  |  | 63.83 µM |
| COc1ccc(Cn2c(Nc3cccc(C(F)(F)F)c3)nc3cc(C(=O)NC(C)C)cnc32)cc1Cl [TCMDC-138556] | 0 (0: NO) | 25.40% | 50.20% | 5.26 | 5.26 |  |  | 4.29 | 5.85 |  |  |  | 51.29 µM |
| Nc1nc(N)c2c(ccc3c2ccn3CCCC(F)(F)F)n1 [TCMDC-138622] | 0 (0: NO) | 33.98% | 53.93% | 5.22 | 5.22 | 0.37 µM | 0.37 µM | 6.43 | 6.98 |  |  |  |  |
| Nc1nc(N)c2c(ccc3c2ccn3CCCF)n1 [TCMDC-138623] | 0 (0: NO) | 92.24% | 33.21% | 5.72 | 5.72 | 1.10 µM | 1.10 µM | 5.96 | 6.91 |  |  |  |  |
| CN1CCN(c2ccc(Nc3nccc(-c4cnn5ncccc45)n3)cc2Cl)CC1 [TCMDC-138688] | 1 (1: YES) | 69.14% | 64.46% | 5.74 | 5.74 |  |  | 4.33 | 6.03 |  |  |  | 46.77 µM |
| CC(=O)c1ccc(NC(=O)Nc2ccc(N(C)c3ccnc(Nc4cccc(CS(C)(=O)=O)c4)n3)cc2)cc1 [TCMDC-138736] | 1 (1: YES) | 94.55% | 90.04% | 6.70 | 6.69 |  |  | 5.68 | 6.22 |  |  |  | 2.11 µM |
| Cc1[nH]c(C)c(-c2ccc(Oc3ccc(OC(F)(F)F)cc3)cc2)c(=O)c1Br [TCMDC-138826] |  | 67.69% | 78.09% |  | 5.10 |  |  | 4.12 | 6.56 | 0 (key: 1: YES; 0: NO) | 5.10 | 75.86 µM |  |
| Cc1ccc(Nc2nc3cc(N(C)c4ccnc(Nc5cccc(CCS(C)(=O)=O)c5)n4)ccc3n2C)cc1.O=C(O)C(F)(F)F [TCMDC-138853] | 0 (0: NO) | 113.72% | 29.45% | 5.73 | 5.73 |  |  | 5.48 | 9.36 |  |  |  | 3.31 µM |
